Reference: PMC3692398 (Biochemical pharmacology, 2013)

How the values were obtained:
hVMAT2 [1] = molecular target: T1, hVMAT2 (Homo sapiens, UniProt Q05940); assay: Inhibition of [3H]DHTB binding, HEK-hVMAT2 membranes; conditions: read-out: Inhibition of [3H]DHTB binding Ki ± sem, hVMAT2
hVMAT2 [2] = molecular target: T1, hVMAT2; assay: Inhibition of [3H]5-HT uptake, HEK-hVMAT2 membrane preparation; assay type: biochemical; conditions: read-out: Inhibition of [3H]5-HT uptake IC50 ± sem, hVMAT2; 40 nM [3H]5-HT, 2 mM MgATP
h5-HT2C receptor [3] = molecular target: T2, h5-HT2C receptor (Homo sapiens, UniProt P28335); assay: Inhibition of 5-HT-stimulated IP-1 formation; assay type: cell-based
T2 sequence (P28335 33-458): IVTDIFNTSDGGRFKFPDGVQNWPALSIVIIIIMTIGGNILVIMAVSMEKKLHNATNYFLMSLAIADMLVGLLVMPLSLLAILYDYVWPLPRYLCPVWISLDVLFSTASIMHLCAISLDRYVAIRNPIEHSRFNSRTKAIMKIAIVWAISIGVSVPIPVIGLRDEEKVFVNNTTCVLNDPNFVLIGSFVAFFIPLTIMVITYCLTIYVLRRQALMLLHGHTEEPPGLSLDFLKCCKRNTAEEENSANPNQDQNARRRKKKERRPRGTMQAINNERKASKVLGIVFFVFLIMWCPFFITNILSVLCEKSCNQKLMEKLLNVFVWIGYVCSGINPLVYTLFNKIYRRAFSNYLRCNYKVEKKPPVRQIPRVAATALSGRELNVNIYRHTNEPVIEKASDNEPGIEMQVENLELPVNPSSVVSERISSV

h5-HT2C receptor [4] = molecular target: T2, h5-HT2C receptor; assay: biochemical; assay type: binding
human DA D1 receptor = human DA D1 receptor (Homo sapiens, UniProt P21728); assay: [3H]SCH23390 binding, LhD1 cells; conditions: test drugs up to the maximal concentration tested (10 µM)
Chain of human DA D1 receptor (P21728 whole entry): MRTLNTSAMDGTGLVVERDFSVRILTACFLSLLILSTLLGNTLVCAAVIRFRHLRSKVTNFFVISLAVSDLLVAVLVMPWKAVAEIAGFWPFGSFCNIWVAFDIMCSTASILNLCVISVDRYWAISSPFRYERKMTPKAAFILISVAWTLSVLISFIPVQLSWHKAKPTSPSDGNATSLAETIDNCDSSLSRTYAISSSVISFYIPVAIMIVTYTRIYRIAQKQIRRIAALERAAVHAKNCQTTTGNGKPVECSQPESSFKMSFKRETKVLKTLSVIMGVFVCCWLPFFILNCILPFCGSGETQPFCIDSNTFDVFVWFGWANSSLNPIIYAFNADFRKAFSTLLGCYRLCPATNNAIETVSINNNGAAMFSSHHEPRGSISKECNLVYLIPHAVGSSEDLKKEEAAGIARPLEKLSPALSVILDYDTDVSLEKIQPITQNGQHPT

hSigma1 receptor = hSigma1 receptor (Homo sapiens, UniProt Q99720); assay: [3H]; assay type: binding; conditions: Inhibition of [3H]pentazocine binding Ki ± sem, hSigma1
Chain of hSigma1 receptor (Q99720 whole entry): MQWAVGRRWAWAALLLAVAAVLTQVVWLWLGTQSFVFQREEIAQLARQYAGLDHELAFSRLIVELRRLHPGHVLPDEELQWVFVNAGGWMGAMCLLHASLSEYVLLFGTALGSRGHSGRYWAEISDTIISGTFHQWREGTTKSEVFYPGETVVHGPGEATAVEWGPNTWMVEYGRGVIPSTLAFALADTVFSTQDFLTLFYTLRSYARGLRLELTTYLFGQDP

T1 sequence (Q05940 whole entry): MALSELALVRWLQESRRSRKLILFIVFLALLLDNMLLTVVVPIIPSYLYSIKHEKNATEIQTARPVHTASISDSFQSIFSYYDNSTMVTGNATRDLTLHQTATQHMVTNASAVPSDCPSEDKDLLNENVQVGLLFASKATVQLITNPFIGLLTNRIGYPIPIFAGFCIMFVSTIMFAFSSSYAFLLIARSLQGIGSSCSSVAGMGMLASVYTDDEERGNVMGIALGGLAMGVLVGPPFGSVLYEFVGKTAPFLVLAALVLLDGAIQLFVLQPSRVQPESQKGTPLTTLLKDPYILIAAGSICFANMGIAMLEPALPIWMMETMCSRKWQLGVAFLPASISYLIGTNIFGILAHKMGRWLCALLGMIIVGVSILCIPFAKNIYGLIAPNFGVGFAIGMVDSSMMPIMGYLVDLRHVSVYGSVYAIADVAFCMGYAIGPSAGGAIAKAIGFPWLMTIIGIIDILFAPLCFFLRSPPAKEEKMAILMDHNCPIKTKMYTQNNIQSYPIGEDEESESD

Molecule `CCC1(O)CC2c3cc(OC)c(OC)cc3CCN2CC1CC(C)C` [RO4-1284, (2R,2S,11bs)-2-ethyl-3-isobutyl-9,10-dimethoxy-2,2,4,6,7,11b-hexahydro-1H-pyrido[2,1-a]isoquinolin-2-ol, reference compound] has a Ki (hVMAT2 [1]) of 150 ± 15 nM and an IC50 (hVMAT2 [2]) of 98 ± 32 nM.

`Cc1cc2c(cc1Cl)N(C(=O)Nc1ccc(Oc3cccnc3C)nc1)CC2` [SB242084, reference compound] was tested, and the IC50 (h5-HT2C receptor [3]) was 0.28 ± 0.12 nM and the Ki (h5-HT2C receptor [4]) was 2.47 nM.

With `CN1CCc2cc(Cl)c(O)cc2[C@@H](c2ccccc2)C1` [SCH23390] the “affinity for the [3H]SCH23390 binding site, DA D1 receptor” value (human DA D1 receptor) was “high affinity”.

With `Oc1cc2c(cc1O)C(c1ccccc1)CNCC2` (stereo not shown) [SKF38393] the “affinity for the [3H]SCH23390 binding site, DA D1 receptor” value (human DA D1 receptor) was “high affinity”.

Work on `O=C(CCCN1CCC2(CC1)C(=O)NCN2c1ccccc1)c1ccc(F)cc1` [Spiperone, reference compound] yielded a Ki (hSigma1 receptor) of 1310 ± 240 nM.
